In US5831001A, “Treatment of herpesvirus infection” (priority 1995, dated 1998):

Assays:
HSV = assay: plaque reduction assay, inhibition of HSV replication; assay type: cell-based; settings: for Virus titer: pretreated Veto cell monolayers, plaques counted after 2 to 3 days
Description: Selected compounds were first formulated as 10 mM stocks in water for in vitro and call culture procedures. Then stocks are then diluted into buffers used for specific assays, or into cell culture media. For animal studies peptides are diluted into phosphate buffer saline,
The following procedures were then used to determine inhibitory effects of compounds on the replication of HSV. First, confluent monolayers of Veto cells (continuous passage cell line derived from African Green Monkeys) in 24 well cell culture plates were treated with specified concentrations of peptide for 25 hours. This was accomplished by diluting the stock peptide solution in growth medium used to overlay the monolayers, i.e. growth medium containing 10% fetal bovine serum and 10 ug/ml gentamicin in Dulbecco's MEM (DMEM).
Virus was then allowed to adsorb for 1 hour at 37° C. The virus inoculum was removed and the monolayers are overlayed with DMEM containing 2% FBS, 10 ug/ml gentamicin and specified concentration of peptide. Virus was next allowed to replicate for 2 to 3 days until the plaques were judged to be well developed, and then the monolayers were fixed and stained with a solution of 1% crystal violet in 1% formaldehyde, 70% ethanol. Finally, plaques (each representing a single viable virion) were counted and checked microscopically.

inhibition of host cell replication (Veto cells): no apparent inhibition
SMILES: CC(=O)N[C@H](CCCNC(=N)N)C(=O)N[C@H](CCCNC(=N)N)C(=O)N[C@H](CCCNC(=N)N)C(=O)N[C@H](CCCNC(=N)N)C(=O)N[C@H](CCCNC(=N)N)C(=O)N[C@H](CCCNC(=N)N)C(=O)N[C@H](CCCNC(=N)N)C(=O)N[C@H](CCCNC(=N)N)C(=O)N[C@H](CCCNC(=N)N)C(N)=O [compound 4C, acetyl-[D-Arg]9 -NH2]
inhibition of viral replication (HSV; at the concentration tested (5uM)): ≥ 95% | Virus titer (HSV; peptide concentration 0.5 uM): 30,000 pfu/ml | Virus titer (HSV; peptide concentration 5.0 uM): 11,000 pfu/ml
